According to patent US5593970A, “Heterocyclic anthracycline analogs” (priority 1994, dated 1997):

Assays:
HT29 = assay: Soft agar colony formation disk diffusion assay; format: cell-based, human
Method in brief: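 Cells were plated at 10^4–2×10^5 cells per dish in a 0.4% Noble agar upper layer over 0.8% agar. The compound (DMSO/water solution) was applied on a 6.5 mm filter disk, and plates were incubated at 37 °C, 5% CO2 for 10–20 days. Anti-clonogenic activity was measured microscopically as the inhibition zone from the disk edge to the nearest colonies (>50 cells).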

SKOV3 = assay: Microculture tetrazolium assay; format: cell-based; details: Homo sapiens, SK-OV-3, SKOV3; read-out: IC50
M5076 = assay: Soft agar colony formation disk diffusion assay; format: cell-based, murine
Method in brief: (§1)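 Anti-clonogenic activity is scored as the distance from the drug-loaded disk edge to the closest colony of more than 50 cells. Solid tumour and leukaemia lines are plated in separate dishes in two-layer soft agar and incubated 10-20 days at 37° C.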

B16 = assay: Soft agar colony formation disk diffusion assay; format: cell-based, murine
Method in brief: as §1

LL = assay: Soft agar colony formation disk diffusion assay; format: cell-based, murine
Method in brief: as §1

P388 = assay: Soft agar colony formation disk diffusion assay; format: cell-based, murine
Method in brief: as §1

P388/ADR = assay: Soft agar colony formation disk diffusion assay; format: cell-based, murine
Method in brief: as §1

T47D = assay: Microculture tetrazolium assay; format: cell-based; details: Homo sapiens, read-out: IC50
MATB/ADR = assay: Soft agar colony formation disk diffusion assay; format: cell-based, rat
Method in brief: as §1

MATB.WT = assay: Soft agar colony formation disk diffusion assay; format: cell-based, rat
Method in brief: as §1

SKVLB = assay: Microculture tetrazolium assay; format: cell-based; details: for VLB/OV3: IC50 ratio SKVLB/SKOV3; for IC50: SKVLB, read-out: IC50

Compound | zone of inhibition (HT29; 10 μg/DISK) [Zone Units] | IC50 (SKOV3) [µM] | zone of inhibition (M5076; 10 μg/DISK) [Zone Units] | zone of inhibition (M5076; 100 μg/DISK) [Zone Units] | zone of inhibition (B16; 10 μg/DISK) [Zone Units] | zone of inhibition (B16; 100 μg/DISK) [Zone Units] | zone of inhibition (LL; 10 μg/DISK) [Zone Units] | zone of inhibition (LL; 100 μg/DISK) [Zone Units] | zone of inhibition (P388; 10 μg/DISK) [Zone Units] | zone of inhibition (P388; 100 μg/DISK) [Zone Units] | zone of inhibition (P388/ADR; 10 μg/DISK) [Zone Units] | zone of inhibition (P388/ADR; 100 μg/DISK) [Zone Units] | IC50 (T47D) [µM] | zone of inhibition (MATB/ADR; 10 μg/DISK) [Zone Units] | zone of inhibition (MATB/ADR; 100 μg/DISK) [Zone Units] | zone of inhibition (MATB.WT; 10 μg/DISK) [Zone Units] | zone of inhibition (MATB.WT; 100 μg/DISK) [Zone Units] | VLB/OV3 (SKVLB) | IC50 (SKVLB) [µM] | zone of inhibition (HT29; 100 μg/DISK) [Zone Units]
COC(=O)[C@H]1CC2=C(C(=O)c3c(cc4ccccc4c3O)C2=O)[C@H](O[C@H]2C[C@H](NC(=O)C(F)(F)F)[C@H](O)[C@H](C)O2)O1 (mixture of isomers) [BCH-692, (1'S,1S,3R) and (1'S,1R,3S) Methyl[11-hydroxy-1-(2',3',6'-trideoxy-3'-trifluoroacetamido-4'-hydroxy-L-lyxohexopyranose)-5,12-dioxo-3,4,5,12-tetrahydro-anthraceno[2,3-c]pyran-3-yl]formate] | 105.0 ± 5.0 | 2.84 | 50.0 ± 25.5 | 200.0 ± 100.0 | 0 | 200.0 ± 55.0 | 80.5 ± 20.5 | 140.3 ± 40.5 | 50.5 ± 10.9 | 180.0 ± 50.6 | 25.0 ± 10.0 | 150.5 ± 50.0 | 71 | 0 | 180.0 ± 50.5 | 150.0 ± 18.5 | 400.5 ± 100.0 | 0.62 | 1.77 | –
CCOC(=O)C1CC2=C(CO1)C(=O)c1c(cc3ccccc3c1O)C2=O (centres unmarked) [BCH-651, Ethyl(6 and 11 hydroxy-5,12-dioxo-3,4,5,12-tetrahydro-anthraceno[2,3-c]pyran-3-yl)]formate] | 0 | 20.8 | 15.2 ± 4.3 | 51.3 ± 43.3 | 0 | 27.5 ± 13.4 | – | 27.4 ± 4.3 | 45.7 ± 12.9 | 294.5 ± 101.1 | 10.0 ± 0.0 | 30.5 ± 8.6 | 36.3 | 0 | 100.0 | 0 | 36.6 ± 8.6 | 1.13 | 23.6 | 61.0 ± 1.0
CCOC(=O)C1CC2=C(CO1)C(=O)c1c(c(O)c3ccccc3c1OC(C)=O)C2=O (centres unmarked) [BCH-654, Ethyl[11-acetoxy-6-hydroxy-5,12-dioxo-3,4,5,12-tetrahydroanthraceno(2,3-c)pyran-3-yl]formate] | 0 | 98.4 | 0 | 0 | 0 | 137.4 ± 21.8 | – | 0 | 0 | 0 | 0 | 0 | > 100 | 0 | 134.3 ± 17.3 | 0 | 152.5 ± 25.8 | 0.58 | 57.1 | 106.5 ± 21.9
COC(=O)[C@@H]1CC2=C(C(=O)c3c(cc4ccccc4c3O)C2=O)[C@@H](O[C@H]2C[C@H](NC(=O)C(F)(F)F)[C@H](O)[C@H](C)O2)O1 [BCH-691, (1'S,1R,3S)-Methyl-{11-hydroxy-1-(2',3',6'-trideoxy-3'-trifluoroacetamido-4'-hydroxy-L-lyxoheoxpyranose)-5,12-dioxo-3,4,5,12-tetrahydroanthraceno[2,3-c]pyran-3-yl}formate] | 137.0 ± 21.2 | 1.27 | 120.0 ± 28.8 | 220.0 ± 50.8 | 114.0 ± 30.2 | 250.0 ± 58.0 | 50.6 ± 25.5 | 180.0 ± 120.0 | 100.5 ± 50.0 | 200.2 ± 50.0 | 50.0 ± 10.0 | 98.0 ± 15.0 | 2.25 | 0 | 200.0 ± 95.0 | 120.0 ± 50.5 | 380.0 ± 120.0 | 1.11 | 1.41 | 198.0 ± 21.2
